Results: US11807835B2, “Detergent compositions containing a stabilized enzyme by phosphonates” (ECOLAB USA INC., priority 2016, dated 2023)

Key:
amylase = assay: Amylase activity retention in detergent use solution (4000 ppm, 5 GPG water; ethylidene substrate EPS, HEPES buffer pH 8.0); assay type: biochemical
Experimental: (§1) The enzyme activities in the detergents with different phosphonate levels were tested at 4000 ppm in 5 grains per gallon (GPG) water at 120° F. with various time points collected up to 4 hours, after a use solution was generated from the detergent composition. During the tests, the samples at different time points were collected and immediately frozen in an acetone/dry ice bath and stored in −80° C. before the activity of the enzyme was evaluated. For the use of such an assay, t=0 min was the reference point for 100% enzyme activity.
(§2) Assays of enzyme activity in formulations (% retention) were conducted to simulate a presoak condition in a beaker using the chemistry, temperature, and pH conditions relevant to manual warewash or presoak applications. Enzyme activity is an indicator of the stability of the enzyme in the detergent, specifically in an aqueous use solution within a sump (which is under conditions of high pH, temperature and dilution).
Enzyme activity under presoak or manual warewash conditions was traced quantitatively using a standard protease assay. Samples were prepared under bench top conditions, whereby the use solution from a detergent composition or detergent was obtained and maintained at a presoak or manual warewash temperature in a stirring water bath. After the time course for assessing enzyme stability is initiated, aliquots were taken at various time points and flash-frozen. A time=0 sample was prepared for each series by dissolving the detergent formulation at room temperature, mixing thoroughly, and flash freezing. Samples were thawed and diluted as necessary in an assay buffer usually for use in the protease assay. A glycine buffer at pH 9.0 is used here. The assay monitored the direct reaction of the protease on a small, commercially available peptidyl substrate, with liberation of the product providing correlation to the active enzyme content. The product was detected using a plate reader with an appreciable dynamic range (upper absorbance limit of the instrument >3.5). Enzyme activity levels were assessed relative to a calibration curve with average values for replicate tests used to map protease stability under presoak or manual warewash use conditions. Enzyme retention at each time point was calculated as the % enzyme activity relative to the time=0 sample.
The analysis by lipase and amylase assay was conducted similarly, except with a different substrate and buffers. For lipase activity, the substrate is p-nitrophenyl valerate, and for amylase, the substrate is an ethylidene substrate (EPS). The buffer used in lipase assay is TRIS (Tris(hydroxymethyl)aminomethane) buffer at pH 8.0, and in amylase assay HEPES (4-(2-hydroxyethyl)-1-piperazineethanesulfonic acid) buffer at pH 8.0.

[1] = system: enzyme (protease, amylase, lipase); assay: Overall effects of phosphonates on enzyme activity (Table 3); assay type: biochemical; conditions: overall effect of the phosphonate on enzyme activity in the detergent use solution
Experimental: as §1, §2
The relative enzyme activities in a use solution of the tested detergent compositions containing a different phosphonate at different concentrations over a period time are listed in Table 4A-Table 4E, Table 5A-Table 5E, and Table 6A-Table 6F.

## Diglycolamine phosphonate [DGAP]
amylase; All Ash formula, phosphonate 0.3 wt-%, use solution at 120° F., time 0 min
  Relative Amylase Enzyme Activity: 100.00%
amylase; All Ash formula, phosphonate 0.3 wt-%, use solution at 120° F., time 5 min
  Relative Amylase Enzyme Activity: 89.94%
amylase; All Ash formula, phosphonate 0.3 wt-%, use solution at 120° F., time 10 min
  Relative Amylase Enzyme Activity: 87.50%
amylase; All Ash formula, phosphonate 0.3 wt-%, use solution at 120° F., time 20 min
  Relative Amylase Enzyme Activity: 88.87%
amylase; All Ash formula, phosphonate 0.3 wt-%, use solution at 120° F., time 40 min
  Relative Amylase Enzyme Activity: 86.87%
amylase; All Ash formula, phosphonate 0.3 wt-%, use solution at 120° F., time 60 min
  Relative Amylase Enzyme Activity: 82.06%
amylase; All Ash formula, phosphonate 0.3 wt-%, use solution at 120° F., time 90 min
  Relative Amylase Enzyme Activity: 81.79%
amylase; All Ash formula, phosphonate 0.3 wt-%, use solution at 120° F., time 120 min
  Relative Amylase Enzyme Activity: 75.74%
amylase; All Ash formula, phosphonate 0.3 wt-%, use solution at 120° F., time 150 min
  Relative Amylase Enzyme Activity: 79.71%
amylase; All Ash formula, phosphonate 0.3 wt-%, use solution at 120° F., time 180 min
  Relative Amylase Enzyme Activity: 65.75%
amylase; All Ash formula, phosphonate 0.3 wt-%, use solution at 120° F., time 210 min
  Relative Amylase Enzyme Activity: 71.27%
amylase; All Ash formula, phosphonate 0.3 wt-%, use solution at 120° F., time 240 min
  Relative Amylase Enzyme Activity: 70.12%
amylase; all ash formula, versus same composition with PBTC or HEDP without amine(s), FIG. 4D
  amylase stability in all ash formula: more stable
amylase; base formula, phosphonate 0.3 wt-%, use solution at 120° F., time 0 min
  Relative Amylase Enzyme Activity: 39.01%
amylase; base formula, phosphonate 0.3 wt-%, use solution at 120° F., time 5 min
  Relative Amylase Enzyme Activity: 100.00%
amylase; base formula, phosphonate 0.3 wt-%, use solution at 120° F., time 10 min
  Relative Amylase Enzyme Activity: 113.48%
amylase; base formula, phosphonate 0.3 wt-%, use solution at 120° F., time 20 min
  Relative Amylase Enzyme Activity: 112.07%
amylase; base formula, phosphonate 0.3 wt-%, use solution at 120° F., time 40 min
  Relative Amylase Enzyme Activity: 110.36%
amylase; base formula, phosphonate 0.3 wt-%, use solution at 120° F., time 60 min
  Relative Amylase Enzyme Activity: 109.99%
amylase; base formula, phosphonate 0.3 wt-%, use solution at 120° F., time 90 min
  Relative Amylase Enzyme Activity: 118.04%
amylase; base formula, phosphonate 0.3 wt-%, use solution at 120° F., time 120 min
  Relative Amylase Enzyme Activity: 110.39%
amylase; base formula, phosphonate 0.3 wt-%, use solution at 120° F., time 150 min
  Relative Amylase Enzyme Activity: 111.92%
amylase; base formula, phosphonate 0.3 wt-%, use solution at 120° F., time 180 min
  Relative Amylase Enzyme Activity: 112.24%
amylase; base formula, phosphonate 0.3 wt-%, use solution at 120° F., time 210 min
  Relative Amylase Enzyme Activity: 115.96%
amylase; base formula, phosphonate 0.3 wt-%, use solution at 120° F., time 240 min
  Relative Amylase Enzyme Activity: 110.74%
amylase; base formula, phosphonate 0.6 wt-%, use solution at 120º F., time 0 min
  Relative Amylase Enzyme Activity: 100.00%
amylase; base formula, phosphonate 0.6 wt-%, use solution at 120º F., time 5 min
  Relative Amylase Enzyme Activity: 102.43%
amylase; base formula, phosphonate 0.6 wt-%, use solution at 120º F., time 10 min
  Relative Amylase Enzyme Activity: 95.89%
amylase; base formula, phosphonate 0.6 wt-%, use solution at 120º F., time 20 min
  Relative Amylase Enzyme Activity: 99.40%
amylase; base formula, phosphonate 0.6 wt-%, use solution at 120º F., time 40 min
  Relative Amylase Enzyme Activity: 97.26%
amylase; base formula, phosphonate 0.6 wt-%, use solution at 120º F., time 60 min
  Relative Amylase Enzyme Activity: 100.23%
amylase; base formula, phosphonate 0.6 wt-%, use solution at 120º F., time 90 min
  Relative Amylase Enzyme Activity: 95.37%
amylase; base formula, phosphonate 0.6 wt-%, use solution at 120º F., time 120 min
  Relative Amylase Enzyme Activity: 102.17%
amylase; base formula, phosphonate 0.6 wt-%, use solution at 120º F., time 150 min
  Relative Amylase Enzyme Activity: 102.37%
amylase; base formula, phosphonate 0.6 wt-%, use solution at 120º F., time 180 min
  Relative Amylase Enzyme Activity: 101.89%
amylase; base formula, phosphonate 0.6 wt-%, use solution at 120º F., time 210 min
  Relative Amylase Enzyme Activity: 102.69%
amylase; base formula, phosphonate 0.6 wt-%, use solution at 120º F., time 240 min
  Relative Amylase Enzyme Activity: 105.89%
amylase; base formula, phosphonate at 0.1% elemental phosphorus level, use solution at 120º F., time 0 min
  Relative Amylase Enzyme Activity: 100.00%
amylase; base formula, phosphonate at 0.1% elemental phosphorus level, use solution at 120º F., time 5 min
  Relative Amylase Enzyme Activity: 98.51%
amylase; base formula, phosphonate at 0.1% elemental phosphorus level, use solution at 120º F., time 10 min
  Relative Amylase Enzyme Activity: 108.49%
amylase; base formula, phosphonate at 0.1% elemental phosphorus level, use solution at 120º F., time 40 min
  Relative Amylase Enzyme Activity: 97.68%
amylase; base formula, phosphonate at 0.1% elemental phosphorus level, use solution at 120º F., time 60 min
  Relative Amylase Enzyme Activity: 97.62%
amylase; base formula, phosphonate at 0.1% elemental phosphorus level, use solution at 120º F., time 90 min
  Relative Amylase Enzyme Activity: 99.36%
amylase; base formula, phosphonate at 0.1% elemental phosphorus level, use solution at 120º F., time 120 min
  Relative Amylase Enzyme Activity: 92.67%
amylase; base formula, phosphonate at 0.1% elemental phosphorus level, use solution at 120º F., time 150 min
  Relative Amylase Enzyme Activity: 98.24%
amylase; base formula, phosphonate at 0.1% elemental phosphorus level, use solution at 120º F., time 180 min
  Relative Amylase Enzyme Activity: 93.89%
amylase; base formula, phosphonate at 0.1% elemental phosphorus level, use solution at 120º F., time 210 min
  Relative Amylase Enzyme Activity: 107.33%
amylase; base formula, phosphonate at 0.1% elemental phosphorus level, use solution at 120º F., time 240 min
  Relative Amylase Enzyme Activity: 103.75%
[1]
  Stability (effects on enzyme activity): Yes
